In publication PMC11876601 (Molecular Systems Biology, 2025):
Where “and” joins values, the source holds several entries; their conditions need not be identical. Equal entries are not always repeated. Where two headings read alike, the source gives them in different places.

How the values were obtained:
Suit2-07 cells = assay: Cell proliferation assay, GEM + ATR inhibitor (Incucyte confluence, 72 h); format: cell-based, human; conditions: Suit2-07; for EC50: Homo sapiens, 72 h; for Response: R1; for Curve bottom / Curve top: plateau of fitted curve, ratio drug/vehicle confluence;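 for all read-outs here: Suit2-07 cells grown in 96-well plates at 37 °C, 5% CO2, raw 72 h confluence taken without normalizing to starting confluence, each experiment done in triplicate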
Description: (§1) Cells were seeded at 5000 cells/well into 96-well flat bottom plates (Eppendorf) and allowed to attach overnight. […] Cells were incubated for 72 h at 37 °C and 5% CO2. Cell confluence readouts at 72 h were either normalized to their initial confluence using the Incucyte software (AsPC-1) or used without prior normalization (all others). […] Each experiment was performed in triplicates, the data was plotted as mean ± standard deviation (s.d.).

ATR = target: T1, ATR (Homo sapiens, UniProt Q13535); assay: Kinobeads competition pulldown in AsPC-1 lysate; format: binding; conditions: Berzosertib: vs. all except ACVR2; Elimusertib: vs. PIK3C2A; Ceralasertib: vs. CDK7
T1 construct: endogenous in cells; host or cells: AsPC-1 lysate
Description: This was followed by incubation with Kinobeads ε (17.5 µl of settled beads) for 30 min at 4 °C to enrich kinases. […] Enriched proteins were reduced with 50 mM DTT in 8 M urea, 40 mM Tris-HCl, pH 7.4 for 30 min at room temperature, and alkylated with 55 mM chloroacetamide. After reducing the urea concentration to 1–2 M, proteins were digested with trypsin at 37 °C for 16 h. Subsequently, eluted peptides were desalted using SepPak tC18 µElution plates (Waters), freeze-dried by vacuum centrifugation, and stored at −20 °C.
For LC-MS/MS, dried peptides were reconstituted in 0.1% formic acid and analyzed on a Dionex Ultimate3000 nano HPLC (Thermo Scientific) coupled to an Orbitrap Fusion Tribrid mass spectrometer (Thermo Scientific), which was run in data-dependent mode. Peptides were first delivered to a trap column (100 µm × 2 cm, packed in-house with Reprosil-Gold C18 ODS-3 5 µm resin, Dr. Maisch, Ammerbuch) and subsequently washed with solvent A0 (0.1% formic acid in HPLC grade water) at 5 µl/min for 10 min. […] For MS2, up to 12 peptide precursors were isolated (isolation width of 1.2 Th) and subjected to HCD fragmentation using 30% normalized collision energy. […] The duration of dynamic exclusion was set to 30 s.
Oxidized methionine and N-terminal acetylation were set as variable modification, and cysteine carbamidomethylation was set as fixed modification. Label-free quantification (LFQ) and match-between-runs were enabled. All searches were performed with 1% PSM and protein FDR.
Proteins were filtered by potential contaminants, reversed hits and proteins identified only by site. Residual binding of proteins was calculated from LFQ intensities as the ratio between drug doses and vehicle. […] Only kinases quantified with at least 4 unique peptides in the vehicle experiment were considered. Potential targets were further curated through manual inspection of dose-dependent reduction in MS/MS and unique peptide counts.

PANC-1 cells = assay: Cell proliferation assay, GEM + ATR inhibitor (Incucyte confluence, 72 h); conditions: for EC50: Homo sapiens; for Curve bottom / Curve top: PANC-1, plateau of fitted curve, ratio drug/vehicle confluence;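 for EC50: in combination experiments GEM is titrated while ATRi is held at a fixed sub-EC50 dose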;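 for all read-outs here: PANC-1 confluence at 72 h taken as raw values, not normalized to starting confluence, with each experiment run in triplicate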
Description: as §1

[1] = experiment ATRi (ATR inhibitor alone)

T1 sequence (Q13535 whole entry): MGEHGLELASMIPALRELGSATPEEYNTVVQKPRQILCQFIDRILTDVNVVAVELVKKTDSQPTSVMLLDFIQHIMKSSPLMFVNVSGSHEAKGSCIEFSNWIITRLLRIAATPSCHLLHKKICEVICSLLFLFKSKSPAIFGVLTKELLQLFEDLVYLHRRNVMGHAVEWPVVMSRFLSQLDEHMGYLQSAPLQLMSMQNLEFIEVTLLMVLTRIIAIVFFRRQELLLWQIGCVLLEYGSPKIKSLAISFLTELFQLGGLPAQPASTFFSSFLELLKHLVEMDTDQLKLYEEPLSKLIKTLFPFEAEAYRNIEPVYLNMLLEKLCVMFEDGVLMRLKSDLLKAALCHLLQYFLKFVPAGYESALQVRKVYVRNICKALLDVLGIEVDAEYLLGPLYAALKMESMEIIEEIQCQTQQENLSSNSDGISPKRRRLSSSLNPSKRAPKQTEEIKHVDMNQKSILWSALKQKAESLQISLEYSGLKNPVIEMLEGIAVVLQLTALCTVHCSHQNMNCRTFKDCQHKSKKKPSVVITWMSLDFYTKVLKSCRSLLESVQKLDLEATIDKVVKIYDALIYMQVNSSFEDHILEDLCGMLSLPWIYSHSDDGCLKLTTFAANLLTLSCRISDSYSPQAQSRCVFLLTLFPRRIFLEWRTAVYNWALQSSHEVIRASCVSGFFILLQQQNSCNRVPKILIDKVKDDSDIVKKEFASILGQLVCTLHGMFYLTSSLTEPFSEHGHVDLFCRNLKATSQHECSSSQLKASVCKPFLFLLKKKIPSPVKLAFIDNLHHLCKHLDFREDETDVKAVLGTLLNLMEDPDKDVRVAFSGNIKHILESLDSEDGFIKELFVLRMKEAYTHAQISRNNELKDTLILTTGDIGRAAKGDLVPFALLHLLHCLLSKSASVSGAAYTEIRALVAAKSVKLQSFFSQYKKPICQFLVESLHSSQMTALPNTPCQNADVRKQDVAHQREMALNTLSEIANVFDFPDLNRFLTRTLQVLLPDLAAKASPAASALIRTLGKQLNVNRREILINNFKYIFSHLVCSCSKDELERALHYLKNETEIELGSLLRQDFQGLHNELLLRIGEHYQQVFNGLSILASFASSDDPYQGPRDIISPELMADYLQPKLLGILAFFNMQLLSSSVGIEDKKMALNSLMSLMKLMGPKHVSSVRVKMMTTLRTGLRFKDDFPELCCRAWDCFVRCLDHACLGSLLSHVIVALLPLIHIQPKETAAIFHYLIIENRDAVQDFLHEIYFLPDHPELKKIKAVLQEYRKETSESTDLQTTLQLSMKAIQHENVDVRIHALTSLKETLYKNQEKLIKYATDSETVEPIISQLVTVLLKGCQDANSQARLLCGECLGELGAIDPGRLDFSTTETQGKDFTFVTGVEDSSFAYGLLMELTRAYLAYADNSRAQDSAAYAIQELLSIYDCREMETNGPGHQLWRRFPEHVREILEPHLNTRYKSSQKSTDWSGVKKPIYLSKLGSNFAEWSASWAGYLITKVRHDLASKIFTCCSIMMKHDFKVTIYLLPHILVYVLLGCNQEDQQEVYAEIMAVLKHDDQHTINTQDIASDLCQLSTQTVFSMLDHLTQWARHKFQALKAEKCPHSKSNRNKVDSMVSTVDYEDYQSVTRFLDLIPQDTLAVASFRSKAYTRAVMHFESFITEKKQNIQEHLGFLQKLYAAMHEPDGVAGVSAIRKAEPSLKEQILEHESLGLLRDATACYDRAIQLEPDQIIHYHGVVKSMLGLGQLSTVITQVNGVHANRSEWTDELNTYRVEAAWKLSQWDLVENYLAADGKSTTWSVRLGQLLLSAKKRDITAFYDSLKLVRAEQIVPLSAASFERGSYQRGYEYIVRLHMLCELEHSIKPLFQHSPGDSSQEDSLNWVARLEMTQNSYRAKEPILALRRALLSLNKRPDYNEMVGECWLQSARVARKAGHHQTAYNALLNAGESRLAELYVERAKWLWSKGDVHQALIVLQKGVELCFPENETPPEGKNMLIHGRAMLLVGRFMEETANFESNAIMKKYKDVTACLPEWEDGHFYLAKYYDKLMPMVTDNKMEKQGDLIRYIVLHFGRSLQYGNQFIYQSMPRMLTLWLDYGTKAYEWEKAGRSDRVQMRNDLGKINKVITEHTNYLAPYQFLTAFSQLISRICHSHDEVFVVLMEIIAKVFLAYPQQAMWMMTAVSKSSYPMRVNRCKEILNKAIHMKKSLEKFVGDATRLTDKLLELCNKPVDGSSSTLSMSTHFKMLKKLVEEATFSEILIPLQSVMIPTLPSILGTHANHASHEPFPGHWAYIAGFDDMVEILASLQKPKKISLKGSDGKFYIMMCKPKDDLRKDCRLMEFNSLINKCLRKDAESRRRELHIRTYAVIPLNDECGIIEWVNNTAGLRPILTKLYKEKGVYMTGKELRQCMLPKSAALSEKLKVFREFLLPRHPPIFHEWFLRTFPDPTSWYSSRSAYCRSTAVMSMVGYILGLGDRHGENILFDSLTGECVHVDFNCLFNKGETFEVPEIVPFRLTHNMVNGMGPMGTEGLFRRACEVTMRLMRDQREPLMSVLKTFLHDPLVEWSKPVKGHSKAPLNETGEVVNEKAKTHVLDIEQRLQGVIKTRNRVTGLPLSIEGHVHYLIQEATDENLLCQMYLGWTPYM
T1 sequence (Q8WXE1 whole entry partner): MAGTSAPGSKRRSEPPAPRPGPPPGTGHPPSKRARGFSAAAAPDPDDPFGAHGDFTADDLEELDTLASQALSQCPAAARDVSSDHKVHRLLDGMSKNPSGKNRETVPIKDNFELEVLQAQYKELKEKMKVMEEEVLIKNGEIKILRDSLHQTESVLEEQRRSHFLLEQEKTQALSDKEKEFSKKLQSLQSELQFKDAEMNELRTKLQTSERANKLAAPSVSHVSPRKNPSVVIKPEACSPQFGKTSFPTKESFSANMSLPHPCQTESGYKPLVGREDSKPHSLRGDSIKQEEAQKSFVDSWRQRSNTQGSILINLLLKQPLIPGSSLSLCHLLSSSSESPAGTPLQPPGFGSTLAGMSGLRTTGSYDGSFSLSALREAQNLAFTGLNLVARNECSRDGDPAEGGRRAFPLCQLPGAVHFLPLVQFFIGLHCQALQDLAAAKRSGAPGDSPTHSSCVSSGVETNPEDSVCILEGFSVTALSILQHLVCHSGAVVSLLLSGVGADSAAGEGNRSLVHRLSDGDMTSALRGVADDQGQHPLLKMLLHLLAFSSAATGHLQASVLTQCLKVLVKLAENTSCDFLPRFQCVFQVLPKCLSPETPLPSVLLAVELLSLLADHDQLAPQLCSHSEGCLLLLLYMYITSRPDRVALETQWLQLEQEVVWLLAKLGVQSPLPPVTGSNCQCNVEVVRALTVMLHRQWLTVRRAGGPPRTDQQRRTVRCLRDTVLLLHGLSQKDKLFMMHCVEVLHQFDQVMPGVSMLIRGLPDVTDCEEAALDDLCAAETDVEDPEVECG

For `CNCc1ccc(-c2cc(-c3nc(-c4ccc(S(=O)(=O)C(C)C)cc4)cnc3N)on2)cc1` [Berzosertib], the EC50 (Suit2-07 cells; experiment ATRi (ATR inhibitor alone), -log10 of EC50 [M], read-out: pEC50 (converted)) was 8.32e-07 M, the EC50 (Suit2-07 cells; experiment ATRi (ATR inhibitor alone), mean (one replicate), read-out: EC50 mean) was 8.26e-07 M and the EC50 (Suit2-07 cells; experiment ATRi (ATR inhibitor alone), replicate R1, read-out: EC50) was 8.26e-07 M. For the same molecule, the Response (Suit2-07 cells; GEM+ATRi_dose1, GEM 0 nM + ATRi 10 nM, in % (unit assumed)) was 98.77, the Response (Suit2-07 cells; GEM+ATRi_dose1, GEM 1 nM + ATRi 10 nM, in % (unit assumed)) was 98.71 and the Response (Suit2-07 cells; GEM+ATRi_dose1, GEM 3 nM + ATRi 10 nM, in % (unit assumed)) was 96.04. For the same molecule, the Response (Suit2-07 cells; GEM+ATRi_dose1, GEM 10 nM + ATRi 10 nM, in % (unit assumed)) was 36.30, the Response (Suit2-07 cells; GEM+ATRi_dose1, GEM 30 nM + ATRi 10 nM, in % (unit assumed)) was 15.43 and the Response (Suit2-07 cells; GEM+ATRi_dose1, GEM 100 nM + ATRi 10 nM, in % (unit assumed)) was 14.13. It also gave a Response (Suit2-07 cells; GEM+ATRi_dose1, GEM 300 nM + ATRi 10 nM, in % (unit assumed)) of 12.00, a Response (Suit2-07 cells; GEM+ATRi_dose1, GEM 1000 nM + ATRi 10 nM, in % (unit assumed)) of 12.45 and a Response (Suit2-07 cells; GEM+ATRi_dose1, GEM 3000 nM + ATRi 10 nM, in % (unit assumed)) of 11.51. The Response (Suit2-07 cells; GEM+ATRi_dose2, GEM 0 nM + ATRi 3 nM, in % (unit assumed)) was 99.37, the Response (Suit2-07 cells; GEM+ATRi_dose2, GEM 1 nM + ATRi 3 nM, in % (unit assumed)) was 98.07 and the Response (Suit2-07 cells; GEM+ATRi_dose2, GEM 3 nM + ATRi 3 nM, in % (unit assumed)) was 44.64. It also gave a Response (Suit2-07 cells; GEM+ATRi_dose2, GEM 10 nM + ATRi 3 nM, in % (unit assumed)) of 20.67, a Response (Suit2-07 cells; GEM+ATRi_dose2, GEM 30 nM + ATRi 3 nM, in % (unit assumed)) of 15.78 and a Response (Suit2-07 cells; GEM+ATRi_dose2, GEM 100 nM + ATRi 3 nM, in % (unit assumed)) of 12.95. For the same molecule, the Response (Suit2-07 cells; GEM+ATRi_dose2, GEM 300 nM + ATRi 3 nM, in % (unit assumed)) was 13.27, the Response (Suit2-07 cells; GEM+ATRi_dose2, GEM 1000 nM + ATRi 3 nM, in % (unit assumed)) was 13.27 and the Response (Suit2-07 cells; GEM+ATRi_dose2, GEM 3000 nM + ATRi 3 nM, in % (unit assumed)) was 11.05. It also gave a Response (Suit2-07 cells; GEM+ATRi_dose3, GEM 0 nM + ATRi 30 nM, in % (unit assumed)) of 92.60, a Response (Suit2-07 cells; GEM+ATRi_dose3, GEM 1 nM + ATRi 30 nM, in % (unit assumed)) of 79.33 and a Response (Suit2-07 cells; GEM+ATRi_dose3, GEM 3 nM + ATRi 30 nM, in % (unit assumed)) of 33.65. For the same molecule, the Response (Suit2-07 cells; GEM+ATRi_dose3, GEM 10 nM + ATRi 30 nM, in % (unit assumed)) was 15.80, the Response (Suit2-07 cells; GEM+ATRi_dose3, GEM 30 nM + ATRi 30 nM) was 15.08 and the Response (Suit2-07 cells; GEM+ATRi_dose3, GEM 100 nM + ATRi 30 nM, in % (unit assumed)) was 13.63. For the same molecule, the Response (Suit2-07 cells; GEM+ATRi_dose3, GEM 300 nM + ATRi 30 nM, in % (unit assumed)) was 12.25, the Response (Suit2-07 cells; GEM+ATRi_dose3, GEM 1000 nM + ATRi 30 nM, in % (unit assumed)) was 9.74 and the Response (Suit2-07 cells; GEM+ATRi_dose3, GEM 3000 nM + ATRi 30 nM, in % (unit assumed)) was 10.10. It also gave a Curve bottom (Suit2-07 cells; [1]) of 1.01, a Curve top (Suit2-07 cells; [1]) of 0.09 and a Response (Suit2-07 cells; experiment ATRi, ATRi 3 nM, GEM 0 nM, in % (unit assumed)) of 98.72. For the same molecule, the Response (Suit2-07 cells; experiment ATRi, ATRi 10 nM, GEM 0 nM, in % (unit assumed)) was 98.54, the Response (Suit2-07 cells; experiment ATRi, ATRi 30 nM, GEM 0 nM, in % (unit assumed)) was 98.42 and the Response (Suit2-07 cells; experiment ATRi, ATRi 100 nM, GEM 0 nM, in % (unit assumed)) was 98.94. For the same molecule, the Response (Suit2-07 cells; experiment ATRi, ATRi 300 nM, GEM 0 nM, in % (unit assumed)) was 89.08, the Response (Suit2-07 cells; experiment ATRi, ATRi 1000 nM, GEM 0 nM, in % (unit assumed)) was 45.00 and the Response (Suit2-07 cells; experiment ATRi, ATRi 3000 nM, GEM 0 nM, in % (unit assumed)) was 16.95. For the same molecule, the Response (Suit2-07 cells; experiment ATRi, ATRi 10000 nM, GEM 0 nM, in % (unit assumed)) was 8.62, the Curve bottom (Suit2-07 cells; experiment GEM+ATRi_dose1) was 1.01 and the Curve top (Suit2-07 cells; experiment GEM+ATRi_dose1) was 0.13. For the same molecule, the Curve bottom (Suit2-07 cells; experiment GEM+ATRi_dose2) was 1.03, the Curve top (Suit2-07 cells; experiment GEM+ATRi_dose2) was 0.15 and the Curve bottom (Suit2-07 cells; experiment GEM+ATRi_dose3) was 0.95. For the same molecule, the Curve top (Suit2-07 cells; experiment GEM+ATRi_dose3) was 0.13, the “affinity to ATR over off-targets” value (ATR) was over 10 fold and the EC50 (PANC-1 cells; PANC-1, 72 h, read-out: EC50 mean [nM], PANC-1, experiment ATRi (ATR inhibitor alone), mean of replicates) was 22200 nM. The EC50 (PANC-1 cells; PANC-1, PANC-1, experiment ATRi (ATR inhibitor alone), replicates R1-R3) was 31800 nM, the EC50 (PANC-1 cells; PANC-1, PANC-1, experiment GEM+ATRi_dose1, replicates R1-R3) was 4.75 nM and the EC50 (PANC-1 cells; PANC-1, PANC-1, experiment GEM+ATRi_dose2, replicates R1-R3) was 6.05 nM. It also gave an EC50 (PANC-1 cells; PANC-1, PANC-1, experiment GEM+ATRi_dose3, replicates R1-R3) of 3.25 nM, an EC50 (PANC-1 cells; PANC-1, read-out: EC50 mean [nM], PANC-1, experiment ATRi (ATR inhibitor alone), mean of replicates) of 22200 nM and an EC50 (PANC-1 cells; PANC-1, read-out: EC50 mean [nM], PANC-1, experiment GEM+ATRi_dose1, mean of replicates) of 4.43 nM. It also gave an EC50 (PANC-1 cells; PANC-1, read-out: EC50 mean [nM], PANC-1, experiment GEM+ATRi_dose2, mean of replicates) of 5.92 nM, an EC50 (PANC-1 cells; PANC-1, read-out: EC50 mean [nM], PANC-1, experiment GEM+ATRi_dose3, mean of replicates) of 4.05 nM and an EC50 (PANC-1 cells; PANC-1, read-out: pEC50, PANC-1 (converted), experiment ATRi (ATR inhibitor alone), -log10 of EC50 [M]) of 31600 nM. It also gave an EC50 (PANC-1 cells; PANC-1, read-out: pEC50, PANC-1 (converted), experiment GEM+ATRi_dose1, replicates R1-R3, -log10 of EC50 [M]) of 4.79 nM, an EC50 (PANC-1 cells; PANC-1, read-out: pEC50, PANC-1 (converted), experiment GEM+ATRi_dose2, replicates R1-R3, -log10 of EC50 [M]) of 6.03 nM and an EC50 (PANC-1 cells; PANC-1, read-out: pEC50, PANC-1 (converted), experiment GEM+ATRi_dose3, replicates R1-R3, -log10 of EC50 [M]) of 3.24 nM. The Curve bottom (PANC-1 cells; [1]) was 1.01 and 0.99, the Curve top (PANC-1 cells; experiment GEM+ATRi_dose1) was 0.60 and 0.57 and the Curve top (PANC-1 cells; experiment GEM+ATRi_dose2) was 0.57 and 0.55. For the same molecule, the Curve bottom (PANC-1 cells; experiment GEM+ATRi_dose3) was 0.93 and 0.91 and the Curve top (PANC-1 cells; experiment GEM+ATRi_dose3) was 0.55 and 0.54.
